ChEMBL document CHEMBL1201862, “PubChem BioAssay data set” (2004)
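Interpolation was linear, between the two tested concentrations surrounding the appropriate level; five concentrations were tested over 48 hours in 96-well plates. Here, GI50 denotes the concentration required for 50% inhibition of growth.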 Calls of active or inactive are those of the source. No stated cut-off is given here; in the data, active = GI50 up to about 1.1 µM and inactive = higher.

How the values were obtained:
Assay in all cases: NCI anticancer screen, dose series, 48 h
[1] = tested on: NCI-H226
[2] = tested on: SW-620
[3] = tested on: SNB-19
[4] = tested on: T47D
[5] = tested on: BT-549
[6] = tested on: Malme-3M
[7] = tested on: SK-OV-3
[8] = tested on: OVCAR-4
[9] = tested on: OVCAR-8
[10] = tested on: Hs-578T
[11] = tested on: EKVX
[12] = tested on: PC-3
[13] = tested on: A498
[14] = tested on: 786-0
[15] = tested on: NCI-H522
[16] = tested on: CCRF-CEM
[17] = tested on: HCT-116
[18] = tested on: RXF 393
[19] = tested on: MDA-MB-231
[20] = tested on: U-251
[21] = tested on: IGROV-1
[22] = tested on: SK-MEL-2
[23] = tested on: CAKI-1
[24] = tested on: RPMI-8226
[25] = tested on: SF-268
[26] = tested on: HCT-15
[27] = tested on: UACC-257
[28] = tested on: MDA-MB-435
[29] = tested on: LOX IMVI
[30] = tested on: ACHN
[31] = tested on: UACC-62
[32] = tested on: OVCAR-5
[33] = tested on: A549
[34] = tested on: HL-60
[35] = tested on: NCI/ADR-RES
[36] = tested on: M14
[37] = tested on: HCC 2998
[38] = tested on: SR
[39] = tested on: SNB-75
[40] = tested on: KM12
[41] = tested on: MOLT-4
[42] = tested on: COLO 205
[43] = tested on: SK-MEL-5
[44] = tested on: NCI-H460
[45] = tested on: DU-145
[46] = tested on: OVCAR-3
[47] = tested on: SK-MEL-28
[48] = tested on: K562
[49] = tested on: UO-31
[50] = tested on: HT-29
[51] = tested on: NCI-H23
[52] = tested on: HOP-92
[53] = tested on: HOP-62
[54] = tested on: SF-295
[55] = tested on: TK-10
[56] = tested on: SN12C
[57] = tested on: SF-539
[58] = tested on: MCF7

In the case of `COC(=O)n1c(=O)n(-c2ccccc2)c(=O)n1C(=O)Nc1ccccc1`, the GI50 [1] is reported as > 100 µM (inactive), the GI50 [2] is reported as > 100 µM (inactive) and the GI50 [3] is reported as > 100 µM (inactive). The GI50 [4] was > 100 µM (inactive), the GI50 [5] was > 100 µM (inactive) and the GI50 [6] was > 100 µM (inactive). The GI50 [7] was > 100 µM (inactive), the GI50 [8] was 3.42 µM (inactive) and the GI50 [9] was > 100 µM (inactive). For the same compound, the GI50 [10] was > 100 µM (inactive), the GI50 [11] was > 100 µM (inactive) and the GI50 [12] was > 100 µM (inactive). The GI50 [13] was > 100 µM (inactive), the GI50 [14] was > 100 µM (inactive) and the GI50 [15] was > 100 µM (inactive). The GI50 [16] was 96.2 µM (inactive), the GI50 [17] was > 100 µM (inactive) and the GI50 [18] was > 100 µM (inactive). For the same compound, the GI50 [19] was > 100 µM (inactive), the GI50 [20] was > 100 µM (inactive) and the GI50 [21] was > 100 µM (inactive). The GI50 [22] was > 100 µM (inactive), the GI50 [23] was > 100 µM (inactive) and the GI50 [24] was 96.4 µM (inactive). For the same compound, the GI50 [25] was > 100 µM (inactive), the GI50 [26] was greater than 100 µM and the GI50 [27] was > 100 µM (inactive). The GI50 [28] was > 100 µM (inactive), the GI50 [29] was > 100 µM (inactive) and the GI50 [30] was > 100 µM (inactive). For the same compound, the GI50 [31] was > 100 µM (inactive), the GI50 [32] was > 100 µM (inactive) and the GI50 [33] was > 100 µM (inactive). The GI50 [34] was > 100 µM (inactive), the GI50 [35] was > 100 µM (inactive) and the GI50 [36] was > 100 µM (inactive). The GI50 [37] was > 100 µM (inactive), the GI50 [38] was > 100 µM (inactive) and the GI50 [39] was > 100 µM (inactive). For the same compound, the GI50 [40] was > 100 µM (inactive), the GI50 [41] was > 100 µM (inactive) and the GI50 [42] was > 100 µM (inactive). For the same compound, the GI50 [43] was > 100 µM (inactive), the GI50 [44] was > 100 µM (inactive) and the GI50 [45] was > 100 µM (inactive). The GI50 [46] was > 100 µM (inactive), the GI50 [47] was > 100 µM (inactive) and the GI50 [48] was 51.3 µM (inactive). The GI50 [49] was > 100 µM (inactive), the GI50 [50] was > 100 µM (inactive) and the GI50 [51] was > 100 µM (inactive). For the same compound, the GI50 [52] was > 100 µM (inactive), the GI50 [53] was > 100 µM (inactive) and the GI50 [54] was > 100 µM (inactive). The GI50 [55] was > 100 µM (inactive).

`CCCCCCCCCOC(=O)c1cnc(Cl)cn1` was tested, and the GI50 [1] was 18.2 µM (inactive), the GI50 [2] was 17.3 µM (inactive) and the GI50 [3] was 20.9 µM (inactive). For the same compound, the GI50 [4] was 22.1 µM (inactive), the GI50 [5] was 26.5 µM (inactive) and the GI50 [6] was 19.6 µM (inactive). For the same compound, the GI50 [7] was 34.9 µM (inactive), the GI50 [8] was 27.9 µM (inactive) and the GI50 [9] was 33.4 µM (inactive). The GI50 [10] was 22.8 µM (inactive), the GI50 [11] was 22.3 µM (inactive) and the GI50 [12] was 6.18 µM (inactive). The GI50 [14] was 72.4 µM (inactive), the GI50 [15] was 19 µM (inactive) and the GI50 [16] was 39.9 µM (inactive). The GI50 [17] was 17.7 µM (inactive), the GI50 [19] was 18.5 µM (inactive) and the GI50 [56] was 18.3 µM (inactive). For the same compound, the GI50 [20] was 19.7 µM (inactive), the GI50 [21] was 20.2 µM (inactive) and the GI50 [22] was 22.1 µM (inactive). The GI50 [23] was 16.9 µM (inactive), the GI50 [24] was 21.9 µM (inactive) and the GI50 [25] was 21.2 µM (inactive). For the same compound, the GI50 [26] was 17.4 µM, the GI50 [27] was 23.6 µM (inactive) and the GI50 [28] was 19.9 µM (inactive). For the same compound, the GI50 [29] was 19.8 µM (inactive), the GI50 [30] was 19.4 µM (inactive) and the GI50 [31] was 18.1 µM (inactive). The GI50 [32] was 29 µM (inactive), the GI50 [57] was 25.8 µM (inactive) and the GI50 [33] was 26.4 µM (inactive). For the same compound, the GI50 [35] was 22.2 µM (inactive), the GI50 [36] was 18.4 µM (inactive) and the GI50 [58] was 25 µM (inactive). The GI50 [38] was 49.1 µM (inactive), the GI50 [39] was 22.3 µM (inactive) and the GI50 [40] was 17.5 µM (inactive). For the same compound, the GI50 [41] was 52.7 µM (inactive), the GI50 [42] was 22.2 µM (inactive) and the GI50 [43] was 17.6 µM (inactive). For the same compound, the GI50 [44] was 20.8 µM (inactive), the GI50 [45] was 19.6 µM (inactive) and the GI50 [47] was 24 µM (inactive). For the same compound, the GI50 [48] was 36.8 µM (inactive), the GI50 [49] was 18.5 µM (inactive) and the GI50 [50] was 29 µM (inactive). The GI50 [51] was 18.2 µM (inactive), the GI50 [52] was 42.4 µM (inactive) and the GI50 [53] was 24 µM (inactive). For the same compound, the GI50 [54] was 17.6 µM (inactive) and the GI50 [55] was 20.5 µM (inactive).
